Test results as given in publication PMC10734772 (Turkish Journal of Chemistry, 2021).

Assays:
Type in all cases: cell-based
K562 = test: MTT assay, K562 cells; settings: Homo sapiens, 24 h, MTT, read-out: Viability rate
Method: After incubation (on the third day), to precipitate leukemia cells, the cell plate was centrifuged at 1500 rpm for 5 min. […] The 50 μl of supernatant was discarded from each well and 100 μl of DMSO was added to dissolve the formazan. Plates were shaken for 45 min to dissolve the dye. Then the optical density of each well was measured by using Thermo VarioSkan Flush Multimode Reader Quantum ST5-1100 at 570 nm wavelength.
The IC50 values were calculated by using GraphPad Prism. All the data presented as the mean of 6 replicates. […] Statistical analysis was performed using dose-response inhibition, log(inhibitor) vs response-variable slope, least squares (ordinary) fit.

Jurkat = test: MTT assay, Jurkat cells; settings: Homo sapiens, 24 h, read-out: Viability rate
Method: (§1) K562, Jurkat, Molt-4, and Nalm-6 cell lines were cultured in RPMI-1640 medium (ECM2001, Euroclone), Reh cell line was cultured in DMEM medium (LM-D1111-Biosera) Hek293T cell line was cultured in IMDM medium (AL070A - HiMedia) supplemented with 10% heat-inactivated fetal bovine serum (F7524-Merck & Co., USA,) penicillin and streptomycin (P4333-Sigma Aldrich). K562, Jurkat and Molt-4 cell lines were seeded as 4x10^5/ml, Reh and Nalm-6 cell lines were seeded 5x10^5/ml, Hek293T cell line was seed as 2x10^5/ml. All cells were incubated at 5% CO2 and 37 °C. All cell lines were kindly provided by Dr. M. Sayitoglu and Dr. Ö. Hatirnaz-Ng from Acibadem University.
(§2) MTT assay is a 3-day test. On the first day, cell count was performed in Bio Rad TC-20 device with the help of trypan blue, each cell line was prepared by diluting to the specified concentrations and seeded in a 96-well plate as 100μL to each well and incubated for 1 day.
(§3) Each compound was solved in DMSO, their stock solutions (33.3, 10, 5, 1 mM, and 300 μM) were prepared by diluting with the same solvent and they were stored under −20°C when they were not used.
(§4) On the second day, stock solutions were subsequently diluted to various concentrations (0.3–200 μM) with related medium prior to experiments. Specified concentrations of the compounds were seeded in a 96-well plate as 100μL to each well and incubated for 24 h.
(§5) After incubation (on the third day), to precipitate leukemia cells, the cell plate was centrifuged at 1500 rpm for 5 min. Then, 100 μL of supernatant was removed from each well carefully and 10 μl of MTT solution (5 mg/mL) was added to each well and incubated at 37 °C for 4 h. The 50 μl of supernatant was discarded from each well and 100 μl of DMSO was added to dissolve the formazan. Plates were shaken for 45 min to dissolve the dye. Then the optical density of each well was measured by using Thermo VarioSkan Flush Multimode Reader Quantum ST5-1100 at 570 nm wavelength.
(§6) Subsequently, viability rate of the cells at each concentration, as percentage, was determined by following formula (1):
(§7) Viability rate (%)=100-[(OD(control)-OD(sample))/OD(control)×100].OD=Optical Density
(§8) The IC50 values were calculated by using GraphPad Prism. All the data presented as the mean of 6 replicates. Results were analyzed and illustrated with Graph Pad Prism (version 5; GraphPad Software, San Diego, CA, USA). Statistical analysis was performed using dose-response inhibition, log(inhibitor) vs response-variable slope, least squares (ordinary) fit.
(§9) To evaluate in-vitro anti-cancer activity of the newly synthesized compounds, they were tested by using the MTT assay in the BCR-ABL positive leukemic cell line (K562), BCR-ABL negative leukemic cell lines (Nalm-6, Molt-4, Reh and Jurkat), and non-leukemic human embryonic kidney tissue (Hek293T) cell line. […] The viability rate of each concentration was calculated by the formula stated in material and methods, the viability rate results for each cell were presented in Table S2 and Figure S44.

[1] = MTT assay, Hek293T non-leukemic control cells; settings: human, Hek293T cells (non-leukemic control cell line), read-out: Viability rate
Method: as §1, §2, §3, §4, §5, §6, §7, §8, §9

Reh = test: MTT assay, Reh cells; settings: Homo sapiens, 24 h, read-out: Viability rate
Method: as §1, §2, §3, §4, §5, §6, §7, §8, §9

Molt-4 = test: MTT assay, Molt-4 cells; settings: Homo sapiens, MOLT-4, 24 h, read-out: Viability rate
Method: as §1, §2, §3, §4, §5, §6, §7, §8, §9

Nalm-6 = test: MTT assay, Nalm-6 cells; settings: Homo sapiens, 24 h, MTT, read-out: Viability rate
[2] = test system: K562, Nalm-6, Molt-4, Reh, Jurkat, Hek293T cell lines; test: MTT assay, overall judgement over all cell lines; settings: overall judgement in words; for 6 and 10: on all cell lines, except Reh
Method: as §9

## Cc1ccnc(Nc2cc(NC(=O)c3ccc(CN4CCN(c5ncccn5)CC4)cc3)ccc2C)n1 [Compound 5, N-(4-Methyl-3-((4-methylpyrimidin-2-yl)amino)phenyl)-4-((4-(pyrimidin-2-yl)piperazin-1-yl)methyl)benzamide]
K562; K562, 1 μM
  viability at 1 µM: 103.1 ± 0.07%
K562; K562, 3 μM
  viability at 3 µM: 98.7 ± 0.08%
K562; K562, 5 μM
  viability at 5 µM: 99.7 ± 0.06%
K562; K562, 10 μM
  viability at 10 µM: 97 ± 0.05%
K562; K562, 15 μM
  viability at 15 µM: 99.5 ± 0.12%
K562; K562, 20 μM
  viability at 20 µM: 106.5 ± 0.04%
K562; K562, 30 μM
  viability at 30 µM: 102.7 ± 0.05%
K562; K562, 50 μM
  viability at 50 µM: 101.6 ± 0.12%
K562; K562, 70 μM
  viability at 70 µM: 100.1 ± 0.08%
K562; K562, 100 μM
  viability at 100 µM: 104.6 ± 0.1%
K562; K562, 150 μM
  viability at 150 µM: 104.3 ± 0.1%
K562; K562, 200 μM
  viability at 200 µM: 102.1 ± 0.14%
Jurkat; 3 μM
  viability at 3 µM: 90.1 ± 0.11%
Jurkat; 5 μM
  viability at 5 µM: 89.7 ± 0.09%
Jurkat; 10 μM
  viability at 10 µM: 89.6 ± 0.15%
Jurkat; 15 μM
  viability at 15 µM: 88.8 ± 0.09%
Jurkat; 20 μM
  viability at 20 µM: 88.8 ± 0.08%
Jurkat; 30 μM
  viability at 30 µM: 88.1 ± 0.1%
Jurkat; 50 μM
  viability at 50 µM: 83.4 ± 0.12%
Jurkat; 70 μM
  viability at 70 µM: 82.5 ± 0.07%
Jurkat; 100 μM
  viability at 100 µM: 80.8 ± 0.13%
Jurkat; 150 μM
  viability at 150 µM: 78.7 ± 0.12%
Jurkat; 200 μM
  viability at 200 µM: 66.5 ± 0.05%
[1]; 3 μM
  viability at 24 h, 3 µM: 66.5 ± 0.11%
[1]; 5 μM
  viability at 24 h, 5 µM: 61 ± 0.13%
[1]; 10 μM
  viability at 24 h, 10 µM: 59.4 ± 0.08%
[1]; 15 μM
  viability at 24 h, 15 µM: 56.6 ± 0.1%
[1]; 20 μM
  viability at 24 h, 20 µM: 56.2 ± 0.03%
[1]; 30 μM
  viability at 24 h, 30 µM: 55.8 ± 0.05%
[1]; 50 μM
  viability at 24 h, 50 µM: 54.1 ± 0.04%
[1]; 70 μM
  viability at 24 h, 70 µM: 52.7 ± 0.03%
[1]; 100 μM
  viability at 24 h, 100 µM: 50.5 ± 0.02%
[1]; 150 μM
  viability at 24 h, 150 µM: 50.4 ± 0.02%
[1]; 200 μM
  viability at 24 h, 200 µM: 50 ± 0.04%
Reh; 1 μM
  viability at 1 µM: 96.6 ± 0.01%
Reh; 3 μM
  viability at 3 µM: 95.8 ± 0.05%
Reh; 5 μM
  viability at 5 µM: 95.7 ± 0.03%
Reh; 10 μM
  viability at 10 µM: 95.1 ± 0.04%
Reh; 15 μM
  viability at 15 µM: 94.9 ± 0.04%
Reh; 20 μM
  viability at 20 µM: 90.2 ± 0.03%
Reh; 30 μM
  viability at 30 µM: 87.9 ± 0.04%
Reh; 50 μM
  viability at 50 µM: 85.5 ± 0.05%
Reh; 70 μM
  viability at 70 µM: 81.4 ± 0.01%
Reh; 100 μM
  viability at 100 µM: 79.1 ± 0.01%
Reh; 150 μM
  viability at 150 µM: 79.1 ± 0.02%
Reh; 200 μM
  viability at 200 µM: 74%
Molt-4; Molt-4, 1 μM
  viability at 1 µM: 95.2 ± 0.08%
Molt-4; Molt-4, 3 μM
  viability at 3 µM: 84.6 ± 0.04%
Molt-4; Molt-4, 5 μM
  viability at 5 µM: 85.1 ± 0.11%
Molt-4; Molt-4, 10 μM
  viability at 10 µM: 84.8 ± 0.03%
Molt-4; Molt-4, 15 μM
  viability at 15 µM: 84.9 ± 0.11%
Molt-4; Molt-4, 20 μM
  viability at 20 µM: 85.8 ± 0.03%
Molt-4; Molt-4, 30 μM
  viability at 30 µM: 85.3 ± 0.06%
Molt-4; Molt-4, 50 μM
  viability at 50 µM: 86.1 ± 0.11%
Molt-4; Molt-4, 70 μM
  viability at 70 µM: 84.6 ± 0.05%
Molt-4; Molt-4, 100 μM
  viability at 100 µM: 83.5 ± 0.12%
Molt-4; Molt-4, 150 μM
  viability at 150 µM: 87.1 ± 0.09%
Molt-4; Molt-4, 200 μM
  viability at 200 µM: 86.6 ± 0.08%
Nalm-6; Nalm-6, 1 μM
  viability at 1 µM: 95.8 ± 0.01%
Nalm-6; Nalm-6, 3 μM
  viability at 3 µM: 95 ± 0.02%
Nalm-6; Nalm-6, 5 μM
  viability at 5 µM: 92.4 ± 0.03%
Nalm-6; Nalm-6, 10 μM
  viability at 10 µM: 90.1 ± 0.02%
Nalm-6; Nalm-6, 15 μM
  viability at 15 µM: 84.1 ± 0.01%
Nalm-6; Nalm-6, 20 μM
  viability at 20 µM: 80.1 ± 0.02%
Nalm-6; Nalm-6, 30 μM
  viability at 30 µM: 78.6 ± 0.01%
Nalm-6; Nalm-6, 50 μM
  viability at 50 µM: 74.1 ± 0.01%
Nalm-6; Nalm-6, 70 μM
  viability at 70 µM: 71.9 ± 0.01%
Nalm-6; Nalm-6, 100 μM
  viability at 100 µM: 70.3 ± 0.01%
Nalm-6; Nalm-6, 150 μM
  viability at 150 µM: 70.2 ± 0.01%
Nalm-6; Nalm-6, 200 μM
  viability at 200 µM: 70.5 ± 0.01%
[2]
  anticancer activity according to MTT assay results: very poor activity
